Data on two molecules can be found in article PMC12169608, “Peptidomimetic Phenoxymethyl Ketone Warheads as Potent Dual-Mode Inhibitors against SARS-CoV‑2 M^pro and Cathepsin” (Journal of Medicinal Chemistry, 2025).

For series [1] the following is noted: hamster, in vivo, ip, 100 mg/kg.
Series [2] can be described thus: in vitro. Conditions: mouse, plasma, mouse plasma protein binding.
Series [3] has as its target T1, human cathepsin L (hCTSL) (Homo sapiens, UniProt P07711).
T1 construct: purchased R&D Systems
Briefly: hCTSL biochemical assay.

Series [4] is described as follows: Mouse liver microsomal stability. Conditions: microsomes, pH 7.4.
The next series has as its system SARS-CoV. Description: microbe, parasite or virus in culture. Type of series: cell-based. The note with it: Severe acute respiratory syndrome coronavirus, read-out: pEC50 (SARS-CoV CPE reduction assay) (converted).
The test system of the next series is SARS-CoV-2. Briefly: microbe, parasite or virus in culture. It is filed as cell-based.
For series [5] the following is noted: microsomes, 10 µM, pH 7.4.
Series [6] is described as follows: in vitro. The note with it: mouse, microsomes, pH 7.4.
A further series has as its target SARS-CoV-2 M^pro (Severe acute respiratory syndrome coronavirus 2, UniProt P0DTD1). Briefly: biochemical. Type of series: biochemical. The note with it: read-out: M^pro biochemical assay pIC50 (converted).
Series [7] concerns the target mouse cathepsin L (mCTSL) (Mus musculus, UniProt P06797). Description: mCTSL biochemical assay. Conditions: read-out: pIC50 (mouse CTSL) (converted).
A further series concerns MERS-CoV. Briefly: microbe, parasite or virus in culture. Conditions: Middle East respiratory syndrome-related coronavirus, Huh-7, read-out: pEC50 (MERS-CoV CPE reduction assay) (converted). It is filed as cell-based.
Series [8] in a line: Hamster liver microsomal stability. Conditions: microsomes, pH 7.4. For orientation: Liver microsomes are a subcellular fraction often used to study metabolism.
In series [9] the target is mouse cathepsin B (mCTSB) (Mus musculus, UniProt P10605). Description: mCTSB biochemical assay. Conditions: read-out: pIC50 (mouse CTSB) (converted).
Setting [10] is: Severe acute respiratory syndrome coronavirus 2, Vero C1008, read-out: SARS-CoV-2 CPE reduction assay pEC50 (converted).

Molecules are shown by their SMILES. Where two headings read alike, the source gives them in different places. Some results are limits rather than exact numbers.

T1 sequence (P07711 114-333): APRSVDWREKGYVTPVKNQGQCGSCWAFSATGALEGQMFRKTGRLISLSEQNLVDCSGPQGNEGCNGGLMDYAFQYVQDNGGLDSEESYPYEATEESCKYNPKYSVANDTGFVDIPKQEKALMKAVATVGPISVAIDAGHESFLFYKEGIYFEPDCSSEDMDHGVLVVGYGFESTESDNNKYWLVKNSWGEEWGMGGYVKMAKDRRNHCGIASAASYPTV
mouse cathepsin L (mCTSL), sequence (P06797 114-334): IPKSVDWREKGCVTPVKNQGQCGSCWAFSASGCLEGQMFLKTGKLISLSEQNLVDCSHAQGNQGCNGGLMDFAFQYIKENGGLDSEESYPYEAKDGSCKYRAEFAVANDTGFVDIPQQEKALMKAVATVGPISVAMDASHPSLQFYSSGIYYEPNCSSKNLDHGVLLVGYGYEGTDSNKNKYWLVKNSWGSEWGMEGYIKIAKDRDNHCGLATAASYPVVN
mouse cathepsin B (mCTSB), sequence (P10605 80-339): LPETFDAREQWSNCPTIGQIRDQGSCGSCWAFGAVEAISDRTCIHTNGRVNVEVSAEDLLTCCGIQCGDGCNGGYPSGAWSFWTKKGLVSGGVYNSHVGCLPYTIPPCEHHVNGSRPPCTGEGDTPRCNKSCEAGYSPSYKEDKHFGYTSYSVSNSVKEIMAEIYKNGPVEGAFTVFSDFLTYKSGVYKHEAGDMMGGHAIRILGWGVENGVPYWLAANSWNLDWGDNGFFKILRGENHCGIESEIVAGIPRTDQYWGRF

The fraction unbound is free concentration divided by total concentration. A higher fraction unbound goes with weak binding. In general, half-life refers to the time needed for the level to fall by half in the phase considered. By microsomal CLint is commonly meant the capacity of the preparation to metabolise the compound, expressed as a volume cleared per time. What is called share remaining is what is left of the initial amount, in per cent. For the molecule `COc1cccc2[nH]c(C(=O)N[C@@H](Cc3cccc(F)c3)C(=O)N[C@@H](C[C@@H]3CCNC3=O)C(=O)COc3c(F)c(F)c(CO)c(F)c3F)cc12` [compound 1, N-((S)-3-(3-Fluorophenyl)-1-oxo-1-(((S)-3-oxo-1-((S)-2-oxopyrrolidin-3-yl)-4-(2,3,5,6-tetrafluoro-4-(hydroxymethyl)phenoxy)butan-2-yl)amino)propan-2-yl)-4-methoxy-1H-indole-2-carboxamide], in series [1], the “clinical signs upon intraperitoneal dosing” value is on record as “no clinical signs have been observed”. For the same molecule, the fraction unbound at 3 h, 2 µM in the series “in vitro [2]” (fraction bound (Fb)) and in “in vitro [2]” (fraction unbound (Fu)) was 0.0194 each time. In addition, in series [3], the “hCTSL biochemical assay pIC50” value is 7.54. In addition, the half-life at 1 µM amounted to 1.18 min in series [4] and 0.58 min in series [8]. Moreover, the EC50 was 0.302 µM in the series on SARS-CoV; 0.13 µM in the series with SARS-CoV-2 (Severe acute respiratory syndrome coronavirus 2, Vero C1008, read-out: EC50 (CPE)); 0.129 µM in the series with SARS-CoV-2 (setting [10]); 0.00525 µM in the series with MERS-CoV. For the same molecule, the “Peak area (%) by LCMS, mouse liver microsomal stability assay of 1” value came out at 100% in [5] (0 h); 86.9% in series [5] (5 min); 67.9% in [5] (0.25 h); 48.7% in series [5] (0.5 h); 35.8% in [5] (0.75 h); 32.6% in [5] (1 h). In “in vitro [6]”, this molecule registered a microsomal CLint at 1 µM of 586 µL/min/mg. The same molecule showed an amount remaining at 1 h, 1 µM in “in vitro [6]” of 0%. Moreover, the IC50 on SARS-CoV-2 M^pro was 0.00245 µM; in [7], 0.0832 µM.

With `CC(C)(O)c1c(F)c(F)c(OCC(=O)[C@H](C[C@@H]2CCNC2=O)NC(=O)[C@@H]2[C@@H]3[C@H](CN2C(=O)[C@@H](NC(=O)C(F)(F)F)C(C)(C)C)C3(C)C)c(F)c1F` [compound 14, (1R,2S,5S)-3-((S)-3,3-Dimethyl-2-(2,2,2-trifluoroacetamido)butanoyl)-6,6-dimethyl-N-((S)-3-oxo-1-((S)-2-oxopyrrolidin-3-yl)-4-(2,3,5,6-tetrafluoro-4-(2-hydroxypropan-2-yl)phenoxy)butan-2-yl)-3-azabicyclo[3.1.0]hexane-2-carboxamide], in series [1] (female, Syrian golden), the “clinical signs upon intraperitoneal dosing” value is “the animals were found dull and lethargic 15 min up until 45 min postdosing”. Also, the fraction unbound at 3 h, 2 µM in the series “in vitro [2]” (fraction bound (Fb)) and in the series “in vitro [2]” (fraction unbound (Fu)) was 0.0076 in each case. Besides, the “hCTSL biochemical assay pIC50” value in series [3] is given as less than 4.30. For the same molecule, in series [3] (biochemical assay), the “hCTSL activity (in words)” value is “no hCTSL and hCTSB activity was observed”. The EC50 with SARS-CoV-2 (setting [10]) was 0.0398 µM. The IC50 in series [7] is more than 50.1 µM; in series [9], 5.01 µM. This molecule also showed a half-life at 1 µM in [8] of 1.73 min.
